Laboratory results as given in US4565861A, “Serirubicum” (Microbial Chemistry Research Foundation, priority 1983, dated 1986).
In brackets after ≈: the same amount, converted by molar mass. Where two headings read alike, the source gives them in different places.

Columns and labels:
S. aureus 209P = test: Antimicrobial activity, agar dilution method; format: cell-based
From the text: (§1) The antimicrobial activity of serirubicin according to the present invention was examined. It is expressed as minimum inhibitory concentration (MIC) determined by the agar dilution method.

B. subtilis PCI219 = test: Antimicrobial activity, agar dilution method; format: cell-based
From the text: as §1

S. aureus MS8710 = test: Antimicrobial activity, agar dilution method; format: cell-based
From the text: as §1

S. aureus MS9610 = test: Antimicrobial activity, agar dilution method; format: cell-based
From the text: as §1

M. lysodeikticus IF03333 = test: Antimicrobial activity, agar dilution method; format: cell-based
From the text: as §1

Coryn. bovis 1810 = test: Antimicrobial activity, agar dilution method; format: cell-based
From the text: as §1

S. aureus Smith = test: Antimicrobial activity, agar dilution method; format: cell-based
From the text: as §1

B. cereus ATCC10702 = test: Antimicrobial activity, agar dilution method; format: cell-based
From the text: as §1

Sal. typhi T-63 = test: Antimicrobial activity, agar dilution method; format: cell-based
From the text: as §1

[1] = system: Protein synthesis in L1210 cells; test: Inhibition of protein synthesis in L1210 cells; format: cell-based; details: at 10 μg/ml
From the text: (§2) These findings indicated its therapeutic effect on tumors in experimental animals.

L1210 leukemia cells = format: in vivo, CDF1 mice; details: i.p., daily for 10 days
Description: CDF1 mice were intraperitoneally implanted with 1×10^5 L1210 leukemia cells/mouse as a suspension. After the implantation, 0.25 ml of a solution containing the test compound was intraperitoneally injected into each mouse, each day, for 10 days, beginning on the day of implantation.
The increase of life span (%) compared with the control group consisting of mice administered with physiological saline solution instead of the test compound solution was calculated from the following equation: [formula]

[2] = system: DNA synthesis in L1210 cells; test: Inhibition of DNA synthesis in L1210 cells; format: cell-based
From the text: as §2

[3] = system: RNA synthesis in L1210 cells; test: Inhibition of RNA synthesis in L1210 cells; format: cell-based
From the text: as §2

L1210 cells = test: Growth inhibition of cultured L1210 cells; format: cell-based
From the text: as §2

## CCC1(O)CC(OC2CC(N(C)C)C(OC3CC4OC5CC(=O)C(C)OC5OC4C(C)O3)C(C)O2)c2cc3c(c(O)c2C1OC1CC(N(C)C)C(OC2CC4OC5CC(=O)C(C)OC5OC4C(C)O2)C(C)O1)C(=O)c1cccc(O)c1C3=O (stereo not drawn) [serirubicin]
S. aureus 209P
  MIC: 0.78 µg/mL (≈ 0.669 µM)
B. subtilis PCI219
  MIC: 0.78 µg/mL (≈ 0.669 µM)
S. aureus MS8710
  MIC: 0.78 µg/mL (≈ 0.669 µM)
S. aureus MS9610
  MIC: 0.78 µg/mL (≈ 0.669 µM)
M. lysodeikticus IF03333
  MIC: 0.78 µg/mL (≈ 0.669 µM)
Coryn. bovis 1810
  MIC: 0.39 µg/mL (≈ 0.335 µM)
S. aureus Smith
  MIC: 1.56 µg/mL (≈ 1.34 µM)
B. cereus ATCC10702
  MIC: 0.78 µg/mL (≈ 0.669 µM)
Sal. typhi T-63
  MIC: > 3.12 µg/mL
[1]
  Protein synthesis inhibition: 32%
L1210 leukemia cells; 0.031 mg/kg/day
  Increase of life span: 119%
L1210 leukemia cells; 0.063 mg/kg/day
  Increase of life span: 113%
L1210 leukemia cells; 0.125 mg/kg/day
  Increase of life span: 137%
L1210 leukemia cells; 0.25 mg/kg/day
  Increase of life span: 274%
L1210 leukemia cells; 0.5 mg/kg/day
  Increase of life span: 143%
L1210 leukemia cells; 1.0 mg/kg/day
  Increase of life span: 149%
[2]
  ID50 DNA synthesis: 0.46 µg/mL (≈ 0.395 µM)
[3]; L1210 cells
  ID50 RNA synthesis: 0.086 µg/mL (≈ 0.0738 µM)
[3]; cultured L1210 cells
  Inhibition of RNA synthesis (in words): RNA synthesis was inhibited at particularly low concentration
L1210 cells; L1210 cells
  ID50 Growth: 0.004 µg/mL (≈ 0.00343 µM)
L1210 cells; cultured L1210 cells
  Inhibition of growth (in words): inhibited the growth of cultured L1210 cells at very low concentrations
